Laboratory results published in ChEMBL document CHEMBL1127067 (1993).

Legend:
Assay type in all cases: functional
Mus musculus [1] = organism: Mus musculus; assay: Number of survivors after treating 12 mice (infected with B16 melanoma) for 60 days
Mus musculus [2] = assay: Antitumor activity against B-16 melanoma in BDF1 mice expressed as percentage increase in life span at optimum dose of 6 mg/kg; details: B16
Mus musculus [3] = organism: Mus musculus; assay: Number of survivors after treating 42 mice (infected with P388 leukemia) for 30 days
Mus musculus [4] = assay: Antitumor activity against P388 leukemia in BDF1/CDF1 mice expressed as percentage increase in life span at optimum dose of 12.5 mg/kg

For `C(=N\NC1=NCCN1)/c1c2ccccc2c(/C=N/NC2=NCCN2)c2ccccc12` [BISANTRENE], the Cures (Mus musculus [1]) was 2, the ILS at 6 mg/kg (Mus musculus [2]) was 122% and the Cures (Mus musculus [3]) was 17. It also gave an ILS at 12.5 mg/kg (Mus musculus [4]) of 137%.
